# Molecular target: T1, P2X7 receptor (Homo sapiens, UniProt Q99572)
# T1 construct: host or cells: SH-SY5Y
# T1 sequence (Q99572 1-595): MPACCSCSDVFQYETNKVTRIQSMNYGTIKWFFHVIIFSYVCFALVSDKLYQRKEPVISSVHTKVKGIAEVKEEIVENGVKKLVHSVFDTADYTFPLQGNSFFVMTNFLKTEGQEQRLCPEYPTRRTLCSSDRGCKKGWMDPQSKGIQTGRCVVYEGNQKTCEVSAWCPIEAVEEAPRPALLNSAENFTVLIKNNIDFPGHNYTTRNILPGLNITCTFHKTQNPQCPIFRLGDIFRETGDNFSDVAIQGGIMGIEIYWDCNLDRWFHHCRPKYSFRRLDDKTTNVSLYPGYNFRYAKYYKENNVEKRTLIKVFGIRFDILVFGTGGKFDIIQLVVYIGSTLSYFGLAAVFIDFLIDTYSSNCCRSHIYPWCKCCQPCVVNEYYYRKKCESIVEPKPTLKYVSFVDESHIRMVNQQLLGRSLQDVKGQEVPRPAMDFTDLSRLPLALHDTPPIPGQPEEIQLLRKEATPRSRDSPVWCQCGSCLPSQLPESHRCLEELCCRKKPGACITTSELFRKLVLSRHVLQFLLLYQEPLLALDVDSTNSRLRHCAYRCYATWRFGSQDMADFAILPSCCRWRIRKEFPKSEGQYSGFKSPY
# Experiment: P2X7 calcium mobilization assay, high throughput, antagonist activity (Example 4A)
# Assay type: cell-based
# Conditions: 50% decrease in the fluorescence response of cells exposed to 80 μM of 2′(3′)-O-(4-benzoyl-benzoyl)adenosine 5′-triphosphate; Example 4A; read-out: IC50
# Method in brief: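 Antagonism was measured as calcium mobilization on FLIPR^TETRA after a 1 h room-temperature compound preincubation of dye-loaded cells. Baseline from no-agonist wells was subtracted from each well's maximum RFU.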
row,IC50 [nM],SMILES
1,< 2000,"CN1CCC(N(C)C(=O)c2cn3c(C(=O)NCC45CC6CC(CC(C6)C4)C5)cccc3n2)CC1 [Compound 671, 5-N-(adamantan-1-ylmethyl)-2-N-methyl-2-N-(1-methylpiperidin-4-yl)imidazo[1,2-a]pyridine-2,5-dicarboxamide]"
2,< 2000,"CCN(CCN(C)C)C(=O)c1cn2c(C(=O)NCC34CC5CC(CC(C5)C3)C4)cccc2n1 [Compound 672, 5-N-(adamantan-1-ylmethyl)-2-N-[2-(dimethylamino)ethyl]-2-N-ethylimidazo[1,2-a]pyridine-2,5-dicarboxamide]"
3,< 2000,"CCN(C)CCN(CC)C(=O)c1cn2c(C(=O)NCC34CC5CC(CC(C5)C3)C4)cccc2n1 [Compound 673, 5-N-(adamantan-1-ylmethyl)-2-N-ethyl-2-N-{2-[ethyl(methyl)amino]ethyl}imidazo[1,2-a]pyridine-2,5-dicarboxamide]"
4,< 2000,"CCN(CC)C1CCN(C(=O)c2cn3c(C(=O)NCC45CC6CC(CC(C6)C4)C5)cccc3n2)CC1 [Compound 674, N-(adamantan-1-ylmethyl)-2-{[4-(diethylamino)piperidin-1-yl]carbonyl}imidazo [1,2-a]pyridine-5-carboxamide]"
5,< 2000,"CCN(CC)CCN(C)C(=O)c1cn2c(C(=O)NCC34CC5CC(CC(C5)C3)C4)cccc2n1 [Compound 675, 5-N-(adamantan-1-ylmethyl)-2-N-[2-(diethylamino)ethyl]-2-N-methylimidazo[1,2-a]pyridine-2,5-dicarboxamide]"
6,< 2000,"CCN(C(=O)c1cn2c(C(=O)NCC34CC5CC(CC(C5)C3)C4)cccc2n1)C1CCN(C)CC1 [Compound 679, 5-N-(adamantan-1-ylmethyl)-2-N-ethyl-2-N-(1-methylpiperidin-4-yl)imidazo[1,2-a]pyridine-2,5-dicarboxamide]"
7,< 2000,"CC(C)N(C(=O)c1cn2c(C(=O)NCC34CC5CC(CC(C5)C3)C4)cccc2n1)C1CCN(C)CC1 [Compound 680, 5-N-(adamantan-1-ylmethyl)-2-N-isopropyl-2-N-(1-methylpiperidin-4-yl)imidazo[1,2-a]pyridine-2,5-dicarboxamide]"
8,< 2000,"COCCN(C(=O)c1cn2c(C(=O)NCC34CC5CC(CC(C5)C3)C4)cccc2n1)C1CCN(C)CC1 [Compound 681, 5-N-(adamantan-1-ylmethyl)-2-N-(2-methoxyethyl)-2-N-(1-methylpiperidin-4-yl)imidazo[1,2-a]pyridine-2,5-dicarboxamide]"
9,< 2000,"O=C(NCC12CC3CC(CC(C3)C1)C2)c1cccc2nc(Cc3nnn[nH]3)cn12 [Compound 685, N-(adamantan-1-ylmethyl)-2-(1H-tetrazol-5-ylmethyl)imidazo[1,2-a]pyridine-5-carboxamide]"
10,< 2000,"O=C(O)c1cn2c(C(=O)NCC34CC5CC(CC(C5)C3)C4)cccc2n1 [Compound 686, 5-[(adamantan-1-ylmethyl)carbamoyl] imidazo[1,2-a] pyridine-2-carboxylic acid]"
11,< 2000,"CC(C)CC(CNC(=O)c1cccc2nc(CN3CCOCC3)cn12)C1CCCCC1 (stereo not shown) [Compound 687, N-(2-cyclohexyl-4-methylpentyl)-2-(morpholin-4-ylmethyl)imidazo[1,2-a]pyridine-5-carboxamide]"
12,< 2000,"CC(C)CC(CNC(=O)c1cccc2nc(CN3CCOCC3)cn12)c1ccccc1 (stereo not shown) [Compound 688, N-(4-methyl-2-phenylpentyl)-2-(morpholin-4-ylmethyl)imidazo[1,2-a]pyridine-5-carboxamide]"
13,< 2000,"CCOC(=O)C(Cc1cccnc1)c1cn2c(C(=O)NCC34CC5CC(CC(C5)C3)C4)cccc2n1 (stereo not shown) [Compound 689, ethyl 2-{5-[(adamantan-1-ylmethyl)carbamoyl]imidazo[1,2-a]pyridin-2-yl}-3-pyridin-3-ylpropanoate]"
14,< 2000,"CNC1CCN(C(=O)Cc2cn3c(C(=O)NCC45CC6CC(CC(C6)C4)C5)cccc3n2)C1 (stereo not shown) [Compound 690, N-(adamantan-1-ylmethyl)-2-{2-[3-(methylamino)pyrrolidin-1-yl]-2-oxoethyl}imidazo[1,2-a]pyridine-5-carboxamide]"
15,< 2000,"O=C(O)CCCc1cn2c(C(=O)NCC34CC5CC(CC(C5)C3)C4)cccc2n1 [Compound 692, 4-{5-[(adamantan-1-ylmethyl)carbamoyl]imidazo[1,2-a]pyridin-2-yl} butanoic acid]"
16,< 2000,"CC(Cc1cn2c(C(=O)NCC34CC5CC(CC(C5)C3)C4)cccc2n1)C(=O)O (stereo not shown) [Compound 693, 3-{5-[(adamantan-1-ylmethyl)carbamoyl]imidazo[1,2-a]pyridin-2-yl}-2-methylpropanoic acid]"
17,< 2000,"O=C(NCC12CC3CC(CC(C3)C1)C2)c1cccc2nc(C(=O)N3CCCC(C(=O)NCCCO)C3)cn12 (stereo not shown) [Compound 694, N-(adamantan-1-ylmethyl)-2-({3-[(3-hydroxypropyl)carbamoyl]piperidin-1-yl}carbonyl) imidazo[1,2-a]pyridine-5-carboxamide]"
18,< 2000,"CC(C)N(CCCO)C(=O)c1cn2c(C(=O)NCC34CC5CC(CC(C5)C3)C4)cccc2n1 [Compound 695, 5-N-(adamantan-1-ylmethyl)-2-N-(3-hydroxypropyl)-2-N-isopropylimidazol[1,2-a]pyridine-2,5-dicarboxamide]"
19,< 2000,"CC(C)(C)NCCOC(=O)c1cn2c(C(=O)NCC34CC5CC(CC(C5)C3)C4)cccc2n1 [Compound 696, 2-(tert-butylamino)ethyl 5-[(adamantan-1-ylmethyl)carbamoyl] imidazo[1,2-a] pyridine-2-carboxylate]"
20,< 2000,"CC(C)N(CCO)C(=O)c1cn2c(C(=O)NCC34CC5CC(CC(C5)C3)C4)cccc2n1 [Compound 697, 5-N-(adamantan-1-ylmethyl)-2-N-(2-hydroxyethyl)-2-N-isopropylimidazo[1,2-a]pyridine-2,5-dicarboxamide]"
21,< 2000,"CC1CCCCN1C1CCN(C(=O)c2cn3c(C(=O)NCC45CC6CC(CC(C6)C4)C5)cccc3n2)CC1 (stereo not shown) [Compound 699, N-(adamantan-1-ylmethyl)-2-[(2-methyl-1,4′-bipiperidin-1′-yl)carbonyl]imidazo[1,2-a]pyridine-5-carboxamide]"
22,< 2000,"O=C(NCC12CC3CC(CC(C3)C1)C2)c1cccc2nc(C(=O)N3CCN([C@@H]4CCC[C@H]4O)CC3)cn12 [Compound 700, N-(adamantan-1-ylmethyl)-2-({4-[(1R,2R)-2-hydroxycyclopentyl]piperazin-1-yl}carbonyl)imidazo[1,2-a]pyridine-5-carboxamide]"
23,< 2000,"O=C(NCC12CC3CC(CC(C3)C1)C2)c1cccc2nc(C(=O)N3CCN([C@@H]4CCCC[C@H]4O)CC3)cn12 [Compound 701, N-(adamantan-1-ylmethyl)-2-({4-[(1R,2R)-2-hydroxycyclohexyl]piperazin-1-yl}carbonyl)imidazo[1,2-a]pyridine-5-carboxamide]"

row,SMILES,IC50 [nM]
1,"O=C(Cc1cn2c(C(=O)NCC34CC5CC(CC(C5)C3)C4)cccc2n1)NC1CN2CCC1CC2 (stereo not shown) [Compound 684, N-(adamantan-1-ylmethyl)-2-[2-(1-azabicyclo[2.2.2]oct-3-ylamino)-2-oxoethyl]imidazo[1,2-a]pyridine-5-carboxamide]",< 2000
2,"CN(C)[C@@H]1CCN(C(=O)Cc2cn3c(C(=O)NCC45CC6CC(CC(C6)C4)C5)cccc3n2)C1 [Compound 691, N-(adamantan-1-ylmethyl)-2-{2-[(3R)-3-(dimethylamino)pyrrolidin-1-yl]-2-oxoethyl}imidazo[1,2-a]pyridine-5-carboxamide]",< 2000

# Source: patent US8431593B2, “Heteroaryl amide derivatives” (H. Lundbeck A/S, priority 2006, dated 2013)
